We go through seven compounds from article PMC7037732, “Synthesis of Combretastatin A-4 and 3′-Aminocombretastatin A-4 derivatives with Aminoacid Containing Pendants and Study of their Interaction with Tubulin and as Downregulators of the VEGF, hTERT and c-Myc Gene Expression” (Molecules, 2020).

Where “and” joins values, the source holds several entries; their conditions need not be identical. Identical values can stand only once. Entries after “also recorded” stand apart in the source; their conditions may differ.

In one assay the test system is tubulin. Kind of assay: In vitro tubulin polymerization by turbidimetry (It50). Format: biochemical. The following applies: turbidimetry at 350 nm, 37 °C; for It50 (time required to reach 50% of the polymerization): control 16.6 ± 1.0; for Effect on in vitro tubulin polymerization: result in words. The protocol: Figure 3 also includes polymerization curves in the presence of CA-4, AmCA-4 and paclitaxel. This test was also performed using paclitaxel, a microtubule stabilizing agent, as a control for the complete formation of microtubules (see Figure 3).

The subject of another assay is A-549 cells. As to the kind of experiment: Effect on the cellular microtubule network (immunofluorescence). The assay is classed as cell-based, human. As for the experimental part:
The effect on the cellular microtubule network of CA-4 derivatives was studied for compounds 1, 3.7 (L-Thr-OMe), 3.8 (L-Tyr-OMe), 4.2 (L-Val) and 4.3 (L-Leu), which were those accumulating more cells in the G2/M phase. Thus, A-549 cells were incubated for 24 h in the presence of the above compounds and CA-4 at the concentrations indicated in Figure 4.
The effect of some derivatives on the cellular microtubule network were also studied on A-549 cells. The selected compounds were 7.1 (Fmoc-Gly) (0.5 μM), 8.1 (Gly) (2 μM), 8.2 (L-Ala) (3 μM) and 10.1 (D-Val) (40 μM), which were those exerting a higher effect on the cell cycle.
For immunofluorescence microscopy of the microtubule network, 10^6 cells were plated on cover glass and incubated with the different drugs. Cells were then fixed in 3.7% formaldehyde (in PBS pH 7.4) for 20 min at room temperature and permeabilized with PBS-Triton X-100 0.5% for 10 min at room temperature. Direct immunostaining was carried out for 2 h at room temperature with a primary FITC-conjugated anti-α-tubulin antibody (dilution 1:400 in PBS-BSA 1% from a 1 mg/mL solution; monoclonal antibody, clone DM1A; Sigma-Aldrich, Darmstadt, Germany.). Next, cells were incubated for 45 min at room temperature in darkness with secondary Alexa Fluor 488-conjugated antibodies (dilution 1:200 each from 1.5 mg/mL; Molecular Probe, France). Then, cells were washed in PBS and cover glasses were mounted with a drop of ProLong® antifade solution (Invitrogen). The cytoskeleton was imaged by a confocal laser scanning microscope (CLSM) Leica SP5 with a Leica inverted microscope, equipped with a Plan-Apochromat 63× oil immersion objective (NA = 1.4). Each image was recorded with the CLSM’s spectral mode selecting specific domains of the emission spectrum. The FITC fluorophore was excited at 488 nm with an argon laser, and its fluorescence emission was collected between 496 nm and 535 nm.

Consider `COc1ccc(/C=C\c2cc(OC)c(OC)c(OC)c2)cc1NC(=O)[C@@H](N)C(C)O` (some centres unmarked) [Compound 8.7], for which, in the assay with tubulin, the “It50 (time required to reach 50% of the polymerization)” value was 65 min and 65 ± 7 min; the “Effect on in vitro tubulin polymerization” value is listed as “able to delay the polymerization process; also recorded: partial inhibitors of the polymerization process; also recorded: partial inhibitors of the in vitro polymerization of tubulin”.

`COc1ccc(/C=C\c2cc(OC)c(OC)c(OC)c2)cc1N` [AmCA-4, 3′-aminocombretastatin A-4]: the “Effect on the microtubule network” value in the assay with A-549 cells (A-549, 24 h, 50 nM) is “total depolymerization of microtubules”. Also, the “Effect on in vitro tubulin polymerization” value in the assay on tubulin was “almost no absorbance is detected”.

For `COc1ccc(/C=C\c2cc(OC)c(OC)c(OC)c2)cc1O` [CA-4, combretastatin A-4], the “Effect on the microtubule network” value with A-549 cells (A-549, 24 h, 50 nM) is “greatly depolymerizes microtubules”. For the same compound, in the assay on tubulin, the “Effect on in vitro tubulin polymerization” value was “almost no absorbance is detected”.

For `COc1ccc(/C=C\c2cc(OC)c(OC)c(OC)c2)cc1NC(=O)[C@H](C)N` [Compound 8.2], the “Effect on the microtubule network” value in the assay on A-549 cells (A-549, 3 μM) is recorded as “almost total depolymerization of the microtubule network”. In the assay on tubulin, the “It50 (time required to reach 50% of the polymerization)” value was found to be 48 ± 5 min and the “Effect on in vitro tubulin polymerization” value is “able to delay the polymerization process; also recorded: partial inhibitors of the polymerization process; also recorded: partial inhibitors of the in vitro polymerization of tubulin”.

Regarding `COc1ccc(/C=C\c2cc(OC)c(OC)c(OC)c2)cc1NC(=O)CN` [Compound 8.1], in the assay on A-549 cells (A-549, 2 μM), the “Effect on the microtubule network” value is given as “almost total depolymerization of the microtubule network”. The “It50 (time required to reach 50% of the polymerization)” value in the assay with tubulin amounted to 18.5 ± 2.1 min.

`COc1ccc(/C=C\c2cc(OC)c(OC)c(OC)c2)cc1NC(=O)[C@@H](N)Cc1ccccc1` [Compound 8.5]: the “Effect on the microtubule network” value in the assay with A-549 cells (A-549, 0.5 μM) is “much less active”.

Regarding `COc1ccc(/C=C\c2cc(OC)c(OC)c(OC)c2)cc1NC(=O)CNC(=O)OCC1c2ccccc2-c2ccccc21` [Compound 7.1], in the assay on A-549 cells (A-549, 0.5 μM), the “Effect on the microtubule network” value is “almost total depolymerization of the microtubule network”. Moreover, in the assay on tubulin, the “It50 (time required to reach 50% of the polymerization)” value was determined as 16 ± 3 min.
